The test system of the assay is T1, Trichosporon cutaneum phenylalanine ammonia lyase (TcPAL).
T1 construct: gene PAL; extra bands at 67 and 31 kDa; 79 kDa monomer; PAL typically homotetramer
Kind of assay: continuous spectrophotometric assay of trans-cinnamic acid at […] nm. It is filed as biochemical, Cutaneotrichosporon cutaneum. The settings on record: 10 mM Tris-HCl pH 8.0, 30 °C; trial 1 of 3 (the trial quoted in abstract).

On to `N[C@@H](Cc1ccccc1)C(=O)O` [Phe], for which the Km was 5 ± 1.1 mM.

Source of the values: publication PMC3789393, “Purification and Characterization of Phenylalanine Ammonia Lyase from Trichosporon cutaneum” (Enzyme Research, 2013).
